This note sets out measurements from patent US20160297833A1, “THIENOPYRIMIDINES AS MKNK1 AND MKNK2 INHIBITORS” (BAYER PHARMA AKTIENGESELLSCHAFT, priority 2013, published 2016).

As usually defined, the IC50 is the concentration that gives 50% inhibition.

The target of the first assay is T1, human full-length MKNK1 (Homo sapiens, UniProt Q9BUB5, T385D).
T1 construct: GST (N); purchased Carna Biosciences 02-145; host or cells: insect cells (baculovirus expression system)
T1 sequence (Q9BUB5 1-424 isoform Q9BUB5-2 T344D): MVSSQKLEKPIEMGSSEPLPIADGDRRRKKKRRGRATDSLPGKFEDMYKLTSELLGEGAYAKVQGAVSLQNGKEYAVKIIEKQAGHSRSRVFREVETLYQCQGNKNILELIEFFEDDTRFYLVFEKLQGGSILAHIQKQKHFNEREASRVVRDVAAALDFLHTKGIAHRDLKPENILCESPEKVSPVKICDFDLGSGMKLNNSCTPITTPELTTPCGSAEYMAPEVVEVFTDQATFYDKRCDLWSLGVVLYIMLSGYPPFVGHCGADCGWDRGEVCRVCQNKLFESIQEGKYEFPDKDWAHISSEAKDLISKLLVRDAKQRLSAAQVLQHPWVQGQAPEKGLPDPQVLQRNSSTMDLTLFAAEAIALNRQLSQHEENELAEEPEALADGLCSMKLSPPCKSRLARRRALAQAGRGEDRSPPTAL
The assay is described as follows: MKNK1 kinase high ATP assay (TR-FRET). The assay is classed as biochemical. The settings on record: Table 1; MKNK1 kinase high ATP assay, 2 mM ATP; read-out: MKNK1 IC50. The method in brief:
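Full-length human MKNK1 (T385D) preincubated 15 min at 22 °C with compound in HEPES pH 7.5/MgCl2/DTT buffer; reaction with 2 mM ATP (final) and 0.06 μM biotinylated peptide (final), 30 min at 22 °C.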
In general terms: In TR-FRET formats the signal depends on donor and acceptor labels being close together.
For the compound `COC[C@H](C)N(C)C(=O)[C@H]1CCc2c(sc3ncnc(Nc4cc5cn[nH]c5cc4OC)c23)C1` [Example 283, (7S)-4-[(6-Methoxy-1H-indazol-5-yl)amino]-N-[(25)-1-methoxypropan-2-yl]-N-methyl-5,6,7,8-tetrahydro[1]benzothieno[2,3-d]pyrimidine-7-carboxamide], the IC50 is 0.5 nM. Take `C[C@@H]1CN(C(=O)[C@H]2CCc3c(sc4ncnc(Nc5cc6cn[nH]c6cc5N5CCC(N(C)C)CC5)c34)C2)C[C@H](C)O1` [Example 137, [(7S)-4-({6-[4-(Dimethylamino)piperidin-1-yl]-1H-indazol-5-yl}amino)-5,6,7,8-tetrahydro[1]benzothieno[2,3-d]pyrimidin-7-yl][(2R,6S)-2,6-dimethylmorpholin-4-yl]methanone]: the IC50 is 33 nM. Regarding `CC(C)Oc1cc2[nH]ncc2cc1Nc1ncnc2sc3c(c12)CC[C@@H](C(=O)N1CC2(COC2)C1)C3` [Example 89, 2-Oxa-6-azaspiro[3.3]hept-6-yl[(7R)-4-{[6-(propan-2-yloxy)-1H-indazol-5-yl]amino}-5,6,7,8-tetrahydro[1]benzothieno[2,3-d]pyrimidin-7-yl]methanone], the half-inhibitory concentration (IC50) turned out to be 6 nM.

For `CCOc1cc2[nH]ncc2cc1Nc1ncnc2sc3c(c12)CC[C@H](C(=O)N1C[C@H](O)[C@@H](O)C1)C3` [Example 76, [(3S,4S)-3,4-Dihydroxypyrrolidin-1-yl]{(7S)-4-[(6-ethoxy-1H-indazol-5-yl)amino]-5,6,7,8-tetrahydro[1]benzothieno[2,3-d]pyrimidin-7-yl}methanone], the IC50 was 0.4 nM. `COc1cc2[nH]ncc2cc1Nc1ncnc2sc3c(c12)CC[C@H](C(=O)N1CCN(C(=O)N(C)C)CC1)C3` [Example 49, 4-({(7S)-4-[(6-Methoxy-1H-indazol-5-yl)amino]-5,6,7,8-tetrahydro[1]benzothieno[2,3-d]pyrimidin-7-yl}carbonyl)-N,N-dimethylpiperazine-1-carboxamide]: the IC50 was determined as 0.1 nM. Same read-out and setting: with `COc1cc2[nH]ncc2cc1Nc1ncnc2sc3c(c12)CC[C@H](C(=O)N1C[C@H](C)O[C@@H](C)C1)C3` [Example 210, [(2S,6S)-2,6-Dimethylmorpholin-4-yl]{(7S)-4-[(6-methoxy-1H-indazol-5-yl)amino]-5,6,7,8-tetrahydro[1]benzothieno[2,3-d]pyrimidin-7-yl}methanone] the figure was 0.4 nM; with `O=C([C@H]1CCc2c(sc3ncnc(Nc4ccc5[nH]ncc5c4)c23)C1)N1C[C@@H]2C[C@H]1CO2` [Example 10, [(7S)-4-(1H-Indazol-5-ylamino)-5,6,7,8-tetrahydro[1]benzothieno[2,3-d]pyrimidin-7-yl][(1S,4S)-2-oxa-5-azabicyclo[2.2.1]hept-5-yl]methanone], 11.1 nM; with `CCN(C)C(=O)[C@H]1CCc2c(sc3ncnc(Nc4cc5cn[nH]c5cc4OC)c23)C1` [Example 24, (7S)—N-Ethyl-4-[(6-methoxy-1H-indazol-5-yl)amino]-N-methyl-5,6,7,8-tetrahydro[1]benzothieno[2,3-d]pyrimidine-7-carboxamide], 0.2 nM. The same measure, in the same setting: the value for `CCCOc1cc2[nH]ncc2cc1Nc1ncnc2sc3c(c12)CC[C@H](C(=O)N(C)C)C3` [Example 94, (7S)—N,N-Dimethyl-4-[(6-propoxy-1H-indazol-5-yl)amino]-5,6,7,8-tetrahydro[1]benzothieno[2,3-d]pyrimidine-7-carboxamide] was 4.8 nM. On the same count and under the same terms, the value for `CCOc1cc2[nH]ncc2cc1Nc1ncnc2sc3c(c12)CC[C@H](C(=O)N(C)CC(C)(C)C)C3` [Example 173, (7S)—N-(2,2-Dimethylpropyl)-4-[(6-ethoxy-1H-indazol-5-yl)amino]-N-methyl-5,6,7,8-tetrahydro[1]benzothieno[2,3-d]pyrimidine-7-carboxamide] was 0.4 nM; that for `O=C([C@H]1CCc2c(sc3ncnc(Nc4cc5cn[nH]c5cc4F)c23)C1)N1CCOCC1` [Example 226, {(7S)-4-[(6-Fluoro-1H-indazol-5-yl)amino]-5,6,7,8-tetrahydro[1]benzothieno[2,3-d]pyrimidin-7-yl}(morpholin-4-yl)methanone] was 7.8 nM. Consider `COCCN(CCO)C(=O)[C@@H]1CCc2c(sc3ncnc(Nc4cc5cn[nH]c5cc4OC)c23)C1` [Example 43, (7R)—N-(2-Hydroxyethyl)-N-(2-methoxyethyl)-4-[(6-methoxy-1H-indazol-5-yl)amino]-5,6,7,8-tetrahydro[1]benzothieno[2,3-d]pyrimidine-7-carboxamide], for which the IC50 was 8.9 nM. Consider `CN(C)C1CCN(c2cc3[nH]ncc3cc2Nc2ncnc3sc4c(c23)CC[C@H](C(=O)N2CC3(COC3)C2)C4)CC1` [Example 166, [(7S)-4-({6-[4-(dimethylamino)piperidin-1-yl]-1H-indazol-5-yl}amino)-5,6,7,8-tetrahydro[1]benzothieno[2,3-d]pyrimidin-7-yl](2-oxa-6-azaspiro[3.3]hept-6-yl)methanone], for which the IC50 was determined as 20.6 nM.

`COc1cc2[nH]ncc2cc1Nc1ncnc2sc3c(c12)CC[C@H](C(=O)N(C)CCCn1ccnc1)C3` [Example 170, (7S)—N-[3-(1H-Imidazol-1-yl)propyl]-4-[(6-methoxy-1H-indazol-5-yl)amino]-N-methyl-5,6,7,8-tetrahydro[1]benzothieno[2,3-d]pyrimidine-7-carboxamide]: the IC50 came out at 0.6 nM.

For the compound `CC(C)Oc1cc2[nH]ncc2cc1Nc1ncnc2sc3c(c12)CC[C@@H](C(=O)N(C)CC(F)F)C3` [Example 82, (7R)—N-(2,2-Difluoroethyl)-N-methyl-4-{[6-(propan-2-yloxy)-1H-indazol-5-yl]amino}-5,6,7,8-tetrahydro[1]benzothieno[2,3-d]pyrimidine-7-carboxamide], the IC50 was 8.1 nM.

As for `COc1cc2[nH]ncc2cc1Nc1ncnc2sc3c(c12)CC[C@H](C(=O)N1CCC1)C3` [Example 21, Azetidin-1-yl{(7S)-4-[(6-methoxy-1H-indazol-5-yl)amino]-5,6,7,8-tetrahydro[1]benzothieno[2,3-d]pyrimidin-7-yl}methanone], the IC50 stood at 0.4 nM. Same read-out and setting: the value for `COc1cc2[nH]ncc2cc1Nc1ncnc2sc3c(c12)CC[C@H](C(=O)N1CCC(F)(F)C1)C3` [Example 208, (3,3-Difluoropyrrolidin-1-yl){(7S)-4-[(6-methoxy-1H-indazol-5-yl)amino]-5,6,7,8-tetrahydro[1]benzothieno[2,3-d]pyrimidin-7-yl}methanone] was 0.6 nM; that for `CN(C)C(=O)[C@H]1CCc2c(sc3ncnc(Nc4cc5cn[nH]c5cc4OCCCNC(=O)OC(C)(C)C)c23)C1` [Example 180, tert-Butyl {3-[(5-{[(7S)-7-(dimethylcarbamoyl)-5,6,7,8-tetrahydro[1]benzothieno[2,3-d]pyrimidin-4-yl]amino}-1H-indazol-6-yl)oxy]propyl}carbamate] was 0.4 nM. The same measure, in the same setting: with `COc1cc2[nH]ncc2cc1Nc1ncnc2sc3c(c12)CC[C@H](C(=O)N1C[C@H]2C[C@@H]1CN2C)C3` [Example 121, {(7S)-4-[(6-Methoxy-1H-indazol-5-yl)amino]-5,6,7,8-tetrahydro[1]benzothieno[2,3-d]pyrimidin-7-yl}[(1R,4R)-5-methyl-2,5-diazabicyclo[2.2.1]hept-2-yl]methanone] the figure was 0.3 nM.

The assay is the same for the next values; noted with them: Table 2; ratio of the IC50-value of an R-enantiomer and its corresponding S-enantiomer.
For the compound `CCN(C)C(=O)[C@H]1CCc2c(sc3ncnc(Nc4cc5cn[nH]c5cc4OC)c23)C1` [Example 24, (7S)—N-Ethyl-4-[(6-methoxy-1H-indazol-5-yl)amino]-N-methyl-5,6,7,8-tetrahydro[1]benzothieno[2,3-d]pyrimidine-7-carboxamide], the “Activity-Ratio MKNK1” value is reported as 39.1.

Take `COc1cc2[nH]ncc2cc1Nc1ncnc2sc3c(c12)CC[C@H](C(=O)N1CCC1)C3` [Example 21, Azetidin-1-yl{(7S)-4-[(6-methoxy-1H-indazol-5-yl)amino]-5,6,7,8-tetrahydro[1]benzothieno[2,3-d]pyrimidin-7-yl}methanone]: the “Activity-Ratio MKNK1” value was 53.1.
